Source: patent US7560466B2, “Methods of treating or preventing autoimmune diseases with 2,4-pyrimidinediamine compounds” (Rigel Pharmaceuticals, Inc., priority 2003, dated 2009)
Structures can show the parent of a compound that is named as a salt. Where two headings read alike, the source gives them in different places. One block for each compound: values may come before it.

Assays:
[1] = system: cultured human mast cells (CHMC), IgE-induced degranulation; assay: CHMC low cell density IgE activation: tryptase assay; format: cell-based
Procedure, shortened: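 Cord-blood CD34+-derived mucosal mast cells (SCF/IL-6 medium), 1000–1500 cells/well, preincubated with compound 1 h at 37°C, then anti-IgE stimulated 30 min at 37°C.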

[2] = system: cultured human mast cells (CHMC), ionomycin-induced degranulation; assay: CHMC low cell density ionomycin activation: tryptase assay; format: cell-based; conditions: ionomycin activation, read-out: LD Tryptase, CHMC, Iono, 3pt
[3] = low cell density CHMC, 3pt, read-out: LD Tryptase, CHMC, IgE, 3pt
[4] = low cell density CHMC, 8pt, read-out: LD Tryptase, CHMC, IgE, 8pt
[5] = low cell density CHMC, 3-point, read-out: LD Tryptase, CHMC, IgE, 3pt
[6] = low cell density CHMC, 8-point, read-out: LD Tryptase, CHMC, IgE, 8pt
[7] = CHMC low cell density, 8pt, read-out: LD Tryptase, CHMC, IgE, 8pt
[8] = CHMC low cell density, 3pt, read-out: LD Tryptase, CHMC, IgE, 3pt

IC50 [1, 3]: < 10 µM
IC50 [1, 4]: < 10 µM
IC50 ([2]; low cell density CHMC, 3pt): > 10 µM
Compound: COc1cc(Nc2ncc(F)c(Nc3ccc4c(c3)NCC(CCO)O4)n2)cc(OC)c1 (stereo not shown) [Compound 253, N4-[3,4-Dihydro-2-(2-hydroxyethyl)-2H,4H-benz[1,4]oxazin-6-yl]-N2-(3,5-dimethoxyphenyl)-5-fluoro-2,4-pyrimidinediamine]

Compound: CNC(=O)COc1cccc(Nc2ncc(F)c(Nc3ccc4c(n3)NC(=O)C(C)(C)O4)n2)c1 [Compound 992, N4-(2,2-Dimethyl-3-oxo-4H-5-pyrid[1,4]oxazin-6-yl)-5-fluoro-N2-[3-(N-methylamino)carbonylmethyleneoxyphenyl]-2,4-pyrimidinediamine (+)-Camphorsulfonic Acid Salt]
IC50 ([2]; CHMC low cell density, 3pt): > 10 µM

IC50 [1, 5]: < 10 µM
IC50 [1, 6]: < 10 µM
Compound: CCOC(=O)N1CCN(c2cccc(Nc3ncc(F)c(Nc4ccc5c(n4)NCCO5)n3)c2)CC1 [Compound 1138, N4-(3,4-Dihydro-2H,4H-5-pyrid[1,4]oxazin-6-yl)-N2-[3-(4-ethoxycarbonylpiperazino)phenyl]-5-fluoro-2,4-pyrimidinediamine]

IC50 [1, 7]: < 10 µM
Compound: CC(C)(C)C(=O)NCCCn1ncc2cc(Nc3ncc(F)c(Nc4ccc5c(n4)NC(=O)C(C)(C)O5)n3)ccc21 [Compound 852, N4-(2,2-Dimethyl-3-oxo-4H-5-pyrido[1,4]oxazin-6-yl)-5-fluoro-N2-[1-(3-pivalamidopropyl)indazol-5-yl]-2,4-pyrimidinediamine]

IC50 [1, 7]: < 10 µM
Compound: CC1(C)Oc2ccc(Nc3nc(Nc4ccc5oncc5c4)ncc3F)nc2NC1=O [Compound 928, N2-(1,2-Benzisoxazol-5-yl)-N4-(2,2-dimethyl-3-oxo-4H-5-pyrido[1,4]oxazin-6-yl)-5-fluoro-2,4-pyrimidinediamine]

IC50 [1, 6]: < 10 µM
Compound: CNC(=O)COc1cccc(Nc2ncc(F)c(Nc3ccc4c(c3)NC(=O)C(C)(C)O4)n2)c1C [Compound 1067, N4-(2,2-Dimethyl-3-oxo-4H-benz[1,4]oxazin-6-yl)-5-fluoro-N2-[2-methyl-3-(N-methylamino)carbonylmethyleneoxyphenyl]-2,4-pyrimidinediamine]

IC50 [1, 5]: < 10 µM
IC50 [1, 6]: < 10 µM
Compound: CC(=O)N1CCN(c2cccc(Nc3ncc(F)c(Nc4ccc5c(n4)NCCO5)n3)c2)CC1 [Compound 1137, N2-[3-(4-Acetylpiperazino)phenyl]-N4-(3,4-dihydro-2H,4H-5-pyrid[1,4]oxazin-6-yl)-5-fluoro-2,4-pyrimidinediamine]

IC50 [1, 4]: < 10 µM
Compound: CNC(=O)COc1cccc(Nc2ncc(F)c(Nc3ccc4c(c3)NC(=O)C(C)S4(=O)=O)n2)c1 (racemic) [Compound 285, racemic-5-Fluoro-N2-[3-(N-methylamino)carbonylmethyleneoxyphenyl]-N4-(2-methyl-1,1,3-trioxo-2H,4H-benzo[1,4]thiazin-6-yl)-2,4-pyrimidinediamine]

IC50 [1, 6]: < 10 µM
Compound: CCOC(=O)N1CCN(c2cccc(Nc3ncc(F)c(Nc4ccc5c(n4)NC(=O)C(C)(C)O5)n3)c2)CC1 [Compound 1075, N4-(2,2-Dimethyl-3-oxo-4H-5-pyrid[1,4]oxazin-6-yl)-N2-[3-(4-ethoxycarbonylpiperazino)phenyl]-5-fluoro-2,4-pyrimidinediamine]

IC50 [1, 3]: < 10 µM
IC50 [1, 4]: > 10 µM
Compound: N2-(2-Aminocarbonylphenyl)-N4-(2,2-dimethyl-3-oxo-4H-5-pyrid[1,4]oxazin-6-yl)-5-fluoro-2,4-pyrimidinediamine [Compound 1316]

IC50 [1, 4]: < 10 µM
Compound: C[C@H]1Oc2ccc(Nc3nc(Nc4cc5c6c(c4)c(CCO)cn6CCO5)ncc3F)cc2NC1=O [Compound 205, (R)-5-Fluoro-N2-[6-(2-hydroxyethyl)-2,3-dihydropyrrolo[1,2,3-d,e]benzoxazin-8-yl]-N4-(2-methyl-3-oxo-2H,4H-benz[1,4]oxazin-6-yl)-2,4-pyrimidinediamine]

IC50 [1, 6]: < 10 µM
Compound: Cc1c(O)cccc1Nc1ncc(F)c(Nc2ccc3c(n2)NC(=O)C(C)(C)O3)n1 [Compound 1064, N4-(2,2-Dimethyl-3-oxo-4H-5-pyrid[1,4]oxazin-6-yl)-5-fluoro-N2-(3-hydroxy-2-methylphenyl)-2,4-pyrimidinediamine]

Compound: (R)—N2-[3-(N-tert-Butoxycarbonylamino)methylenephenyl]-5-fluoro-N4-(2-methyl-3-oxo-2H,4H-benz[1,4]oxazin-6-yl) [Compound 1277]
IC50 [1, 3]: < 10 µM
IC50 [1, 4]: < 10 µM

IC50 [1, 5]: < 10 µM
Compound: COc1cccc(Nc2ncc(F)c(Nc3ccc4c(n3)NC(=O)C(C)(C)O4)n2)c1C [Compound 1065, N4-(2,2-Dimethyl-3-oxo-4H-5-pyrid[1,4]oxazin-6-yl)-5-fluoro-N2-(3-methoxy-2-methylphenyl)-2,4-pyrimidinediamine]

IC50 [1, 4]: < 10 µM
Compound: CC1(C)C(=O)Nc2cc(Nc3nc(Nc4cccc(O)c4)ncc3F)ccc2S1(=O)=O [Compound 283, racemic-N4-(2,2-Dimethyl-1,1,3-trioxo-4H-benzo[1,4]thiazin-6-yl)-5-fluoro-N2-[3-hydoxyphenyl]-2,4-pyrimidinediamine]

IC50 [1, 8]: < 10 µM
IC50 [1, 7]: < 10 µM
Compound: CC1(C)Oc2ccc(Nc3nc(Nc4ccc5c(cnn5CCCN5C(=O)CCCC5=O)c4)ncc3F)nc2NC1=O [Compound 862, N4-(2,2-Dimethyl-3-oxo-4H-5-pyrid[1,4]oxazin-6-yl)-N2-[1-[3-(2,6-dioxopiperidino]propyl)indazol-5-yl]-5-fluoro-2,4-pyrimidinediamine]

IC50 [1, 3]: < 10 µM
Compound: CC1(C)Sc2ccc(Nc3nc(Cl)ncc3F)cc2NC1=O [Compound 316, N2-Chloro-N4-(2,2,-dimethyl-3-oxo-4H-benzo[1,4]thiazin-6-yl)-5-fluoro-4-pyrimidinea mine]

IC50 [1, 3]: > 10 µM
Compound: O=C1CS(=O)(=O)c2ccc(Nc3nc(Cl)ncc3F)cc2N1 [Compound 315, N2-Chloro-5-fluoro-N4-(1,1,3-trioxo-2H,4H-benzo[1,4]thiazin-6-yl)-4-pyrimidinea mine]

IC50 [1, 7]: < 10 µM
Compound: COc1cc(Nc2ncc(F)c(Nc3ccc4c(c3)NCC(C)(C)O4)n2)cc(OC)c1 [Compound 1002, N4-(3,4-Dihydro-2,2-dimethyl-4H-benz[1,4]oxazin-6-yl)-N2-(3,5-dimethoxyphenyl)-5-fluoro-2,4-pyrimidinediamine]

IC50 [1, 6]: < 10 µM
Compound: CN1CCN(c2cccc(Nc3ncc(F)c(Nc4ccc5c(n4)NC(=O)C(C)(C)O5)n3)c2)CC1 [Compound 1080, N4-(2,2-Dimethyl-3-oxo-4H-5-pyrid [1,4]oxazin-6-yl)-5-fluoro-N2-[3-(4-methylpiperazino)phenyl]-2,4-pyrimidinediamine]

IC50 [1, 5]: > 10 µM
IC50 [1, 6]: < 10 µM
Compound: Cc1cc(C)cc(Nc2ncc(F)c(Nc3ccc4c(n3)NC(=O)[C@H](C)O4)n2)c1 [Compound 1084, (S)—N2-(3,5-Dimethylphenyl)-5-fluoro-N4-(2-methyl-3-oxo-2H,4H-5-pyrid[1,4]oxazin-6-yl)-2,4-pyrimidinediamine]

IC50 ([1]; Homo sapiens, Mast cell, low cell density CHMC, 3pt, read-out: LD Tryptase, CHMC, IgE, 3pt): > 10 µM
Compound: C[C@H]1Oc2ccc(Nc3nc(Nc4ccc(C(=O)N=CC(=O)O)cc4)ncc3F)cc2NC1=O [Compound 1267]

IC50 [1, 3]: < 10 µM
Compound: CC1(C)C(=O)Nc2cc(Nc3nc(Cl)ncc3F)ccc2S1(=O)=O [Compound 318, N2-Chloro-N4-(2,2-dimethyl-1,1,3-trioxo-4H-benzo[1,4]thiazin-6-yl)-5-fluoro-4-pyrimidinea mine]

IC50 [1, 8]: < 10 µM
IC50 [1, 7]: < 10 µM
Compound: C[C@@H]1Oc2ccc(Nc3nc(Nc4ccc5c(c4)nc(CN4CCOCC4)n5C)ncc3F)cc2NC1=O [Compound 957, (S)-5-Fluoro-N2-[1-methyl-2-(4-morpholinomethyl)benzimidazol-5-yl]-N4-(2-methyl-3-oxo-2H,4H-benz[1,4]oxazin-6-yl)--2,4-pyrimidinediamine]

IC50 [1, 7]: < 10 µM
Compound: CNC(=O)Cn1ccc2cc(Nc3ncc(F)c(Nc4ccc5c(c4)OCCO5)n3)ccc21 [Compound 655, N4-(3,4-Ethylenedioxyphenyl)-5-fluoro-N2-[1-(N-methylamino)carbonylmethyleneindol-5-yl]-2,4-pyrimidinediamine]

IC50 [1, 7]: < 10 µM
Compound: COC(=O)CN1C(=O)C(C)(C)Oc2ccc(Nc3nc(Nc4cc(OC)c(OC)c(OC)c4)ncc3F)nc21 [Compound 690, N4-(2,2-Dimethyl-4-carbomethoxymethyl-3-oxo-5-pyrid[1,4]oxazin-6-yl)-5-fluoro-N2-(3,4,5-trimethoxyphenyl)-2,4-pyrimidinediamine]

IC50 [1, 7]: < 10 µM
Compound: COCCCn1ncc2cc(Nc3ncc(F)c(Nc4ccc5c(n4)NC(=O)C(C)(C)O5)n3)ccc21 [Compound 814, N4-(2,2-Dimethyl-3-oxo-4H-5-pyrid[1,4]oxazin-6-yl)-5-fluoro-N2-[1-(3-methoxypropyl)indazol-5-yl]-2,4-pyrimidinediamine]

IC50 [1, 3]: < 10 µM
Compound: N2-(4-Aminocarbonylphenyl)-N4-(2,2-dimethyl-3-oxo-4H-5-pyrid[1,4]oxazin-6-yl)-5-fluoro-2,4-pyrimidinediamine [Compound 1315]

IC50 [1, 5]: < 10 µM
IC50 [1, 6]: < 10 µM
Compound: CCOC(=O)N1CCN(c2ccc(Nc3ncc(F)c(Nc4ccc5c(n4)NCCO5)n3)cc2)CC1 [Compound 1135, N4-(3,4-Dihydro-2H,4H-5-pyrid[1,4]oxazin-6-yl)-N2-[4-(4-ethoxycarbonylpiperazino)phenyl]-5-fluoro-2,4-pyrimidinediamine]

Compound: Cn1ncc2ccc(Nc3ncc(F)c(Nc4ccc5c(n4)NC(=O)C(C)(C)O5)n3)cc21 [Compound 1056, N4-(2,2-Dimethyl-3-oxo-4H-5-pyrid[1,4]oxazin-6-yl)-5-fluoro-N2-[1-methylindazol-6-yl]-2,4-pyrimidinediamine Hydrogen Chloride Salt]
IC50 ([2]; low cell density CHMC, 3-point): > 10 µM
